This is an account of results in patent US7803992B2, “Methods and compositions for expressing an herbicide-tolerant polynucleotide” (Pioneer Hi-Bred International, Inc., priority 2005, dated 2010).

The test system of assay [1] is parent elite stiff stalk inbred corn. Nature of the assay: Preemergence herbicide application in greenhouse: fresh shoot weight and visual injury. Format: in vivo. To be noted: for pest or weed control at 200 g/ha: Zea mays, pre-emergence, 672 h, read-out: % Visual Injury; for Fresh Weight: fresh shoots weighed 4 weeks after treatment, untreated 36.7 g.
Assay [2] concerns Heterozygous GAT-HRA corn. The assay is described as above. Format: in vivo. To be noted: for pest or weed control at 200 g/ha: Zea mays, pre-emergence, 672 h, read-out: % Visual Injury; for Fresh Weight: fresh shoots weighed 4 weeks after treatment, untreated 47.0 g.
In assay [3] the test system is parent elite stiff stalk inbred corn. Nature of the assay: Postemergence herbicide application in greenhouse: fresh shoot weight and visual injury. Format: in vivo. To be noted: for pest or weed control at 200 g/ha: Zea mays, post-emergence, read-out: % Visual Injury; for Fresh Weight: weighed 2 weeks after treatment, untreated 76.4 g.
Assay [4] has as its system Heterozygous GAT-HRA corn. The assay is described as above. Format: in vivo. To be noted: for pest or weed control at 200 g/ha: Zea mays, post-emergence, read-out: % Visual Injury; for Fresh Weight: weighed 2 weeks after treatment, untreated 98.8 g.
Assay [5] deals with GAT-HRA maize. Nature of the assay: Evaluation of herbicide tolerance, spray at V2 stage, injury symptoms after 10-14 days. The assay is classed as in vivo. As to conditions: postemergence; tribenuron (Express) 200, chlorimuron (Classic) 200, imazapyr (Arsenal) 200, metsulfuron-methyl (Ally) 35 g ai/ha.
Experimental: GAT-HRA maize plants were evaluated for tolerance to glyphosate and other herbicides. One protocol used in this evaluation was as follows. At the V2 stage (Ritchie and Hanway (1982), “How a corn plant develops” Spec. Rep. 48. (Coop. Ext. Ser., Iowa State Univ., Ames, Iowa)), plant heights were measured and herbicides were applied by spray application. Ten to fourteen days after the spray application, the transgenic plants were evaluated for injury symptoms and measured for plant height again in order to determine plant growth rates.
Plants were then evaluated at various times after treatment, such as 10 or 14 days after treatment.
The subject of assay [6] is control maize. The description is as above. The assay is classed as in vivo. To be noted: postemergence; tribenuron (Express) 200, chlorimuron (Classic) 200, imazapyr (Arsenal) 200, metsulfuron-methyl (Ally) 35 g ai/ha.
Experimental: At the V2 stage (Ritchie and Hanway (1982), “How a corn plant develops” Spec. Rep. 48. (Coop. Ext. Ser., Iowa State Univ., Ames, Iowa)), plant heights were measured and herbicides were applied by spray application. Ten to fourteen days after the spray application, the transgenic plants were evaluated for injury symptoms and measured for plant height again in order to determine plant growth rates.
Assay [7] relates to GAT-HRA soybeans. Nature of the assay: Postemergence herbicide treatment of soybeans in greenhouse, visual injury. As to conditions: for % Visual Injury: postemergence, glyphosate 8960, tribenuron-methyl 35, rimsulfuron 35 g/ha. Format: in vivo, soybean. On the procedure: (§1) Young regenerated transgenic plants were sprayed with 1× glyphosate (1× rate of glyphosate is 1120 g/ha of glyphosate isopropylamine) to cull segregants. Four replications were performed for each treatment. Plants were then treated with various herbicides, including glyphosate and ALS-inhibitor herbicides.
(§2) Six soybean seeds from each variety to be assayed were planted 1 cm deep in 5.5 (13.97 cm) inch square plastic container of a synthetic growth medium. […] When possible, containers were thinned to two uniform plants. Non-transgenic lines were thinned to two uniform plants per container.
(§3) Results are expressed below in Table 11 as the mean of four replications.

Assay [8] relates to Wild Type soybeans (Jack). Described as above. As to conditions: for % Visual Injury: postemergence, glyphosate 8960, tribenuron-methyl 35, rimsulfuron 35 g/ha. The assay is classed as in vivo, soybean. On the procedure:
as §1, §2, §3

Assay [9] has as its system STS ® soybeans. The description is as above. The assay is classed as in vivo, soybean. The text has this:
When possible, containers were thinned to two uniform plants.

[10] abbreviates: preemergence, 200 g/ha, mean of four replications.
Setting [11] is: postemergence, 200 g/ha (glyphosate 3472 g ae/ha, glufosinate ammonium 1870 g/ha), mean of four replications.
The mark [12] stands for this setting: preemergence, 200 g/ha, 0% no injury, 100% plant death, mean of four replications.
Setting [13] is: postemergence, 200 g/ha (glyphosate 3472 g ae/ha, glufosinate ammonium 1870 g/ha), 0% no injury, 100% plant death, mean of four replications.

Consider `CCOC(=O)c1ccccc1S(=O)(=O)NC(=O)Nc1nc(Cl)cc(OC)n1` [Chlorimuron-ethyl], for which the pest or weed control at 200 g/ha in [1] was 100%; in assay [2] it was 10%; in [3] ([…]), 93%; in [4] ([…]), 15%. In addition, the “Fresh Weight” value is reported as 9.3 g in [1] (setting [10]), 39.4 g in assay [2] (setting [10]), 10.1 g in assay [3] (setting [11]) and 95.5 g in assay [4] (setting [11]). For the same molecule, the results for the “damage from the treatment” value in [5] and in assay [6] were “no significant damage” and “severely damaged or killed”, respectively.
For `CC(C)C1(C)N=C(c2ncccc2C(=O)O)NC1=O` (stereo not shown) [Imazapyr], the pest or weed control at 200 g/ha in [1] (setting [12]) came out at 99%; in [2] (setting [12]) it was 30%; in assay [3] (setting [13]) it was 100%; in assay [4] (setting [13]) it was 1%. Also, the “Fresh Weight” value is 0.3 g in assay [1] (setting [10]), 44.2 g in assay [2] (setting [10]), 2.3 g in [3] (setting [11]) and 97.8 g in [4] (setting [11]). The entries for the “damage from the treatment” value in assay [5] and in [6] were “no significant damage” and “severely damaged or killed”, respectively.
For the molecule `COC(=O)c1ccccc1S(=O)(=O)NC(=O)N(C)c1nc(C)nc(OC)n1` [Tribenuron-methyl], the pest or weed control at 200 g/ha amounted to 66% in assay [1] (setting [12]), 25% in assay [2] (setting [12]), 100% in [3] (setting [13]) and 8% in assay [4] (setting [13]). For the same molecule, the “Fresh Weight” value in assay [1] (setting [10]) is reported as 32.1 g; in [2] (setting [10]), 46.8 g; in [3] (setting [11]), 1.8 g; in assay [4] (setting [11]), 90.8 g. Further, the “damage from herbicide treatment” value in assay [7] (35 g/ha, four replications) was “no significant damage”; in assay [8] (herbicide-treated non-transgenic control soybeans, 35 g/ha), “killed”. Besides, the “% Visual Injury” value in assay [7] (event 59, mean) worked out at 59%; in assay [7] (event 59 line 21) it was 58%; in [7] (event 59 line 28), 60%; in [7] (event 60, mean), 55%; in assay [7] (event 60 line 07), 46%; in assay [7] (event 60 line 11), 71%. In addition, the “% Visual Injury” value was found to be 45% in [7] (event 60 line 22); 49% in assay [7] (event 60 line 35); 38% in assay [7] (event 60 line 41); 49% in assay [7] (event 60 line 46); 40% in assay [7] (event 60 line 70); 69% in [7] (event 60 line 75). Besides, the “% Visual Injury” value in assay [7] (event 60 line 77) is 56%; in [7] (event 60 line 79), 69%; in assay [7] (event 60 line 82) it was 61%; in assay [7] (event 60 line 84), 71%; in [7] (event 61, mean) it was 54%; in assay [7] (event 61 line 02), 41%. For the same molecule, the “% Visual Injury” value is reported as 40% in assay [7] (event 61 line 02B); 55% in assay [7] (event 61 line 05); 65% in [7] (event 61 line 14); 69% in assay [7] (event 61 line 18); 63% in [7] (event 61 line 24); 80% in [7] (event 61 line 33). Besides, the “% Visual Injury” value in assay [7] (event 61 line 34) is 76%; in assay [7] (event 61 line 47), 36%; in assay [7] (event 61 line 49), 54%; in assay [7] (event 61 line 51) it was 60%; in assay [7] (event 61 line 60), 45%; in assay [7] (event 61 line 62), 43%. Besides, the “% Visual Injury” value in assay [7] (event 61 line 99) was determined as 34%; in assay [7] (event 64, mean), 43%; in assay [7] (event 64 line 41), 55%; in [7] (event 64 line 47), 34%; in assay [8] (Wild Type line 82), 97%; in assay [8] (Wild Type line Jack) it was 97%. The “% Visual Injury” value in assay [8] (Wild Type, mean) stood at 97%; in assay [9] (STS ® line 25, glyphosate 8960, tribenuron-methyl 35, rimsulfuron 35 g/ha), 87%; in assay [9] (STS ® line 46, glyphosate 8960, tribenuron-methyl 35, rimsulfuron 35 g/ha) it was 88%; in assay [9] (STS ®, mean, glyphosate 8960, tribenuron-methyl 35, rimsulfuron 35 g/ha) it was 87%.
